Measurements from US10294202B2, “Pyrrolidinones as herbicides” (FMC Corporation, priority 2013, dated 2019).

Legend:
Test in all cases: Test D pre-/postemergence herbicide test
ryegrass, Italian = format: in vivo, Lolium multiflorum; settings: for Plant response rating: Postemergence, Ryegrass, Italian, scale 0 to 100; for Plant response rating, Ryegrass, Italian: Preemergence, scale 0 to 100 (0 no effect, 100 complete control)
Source text: (§1) Seeds of plant species selected from bluegrass (annual bluegrass, Poa annua), blackgrass (Alopecurus myosuroides), canarygrass (littleseed canarygrass, Phalaris minor), chickweed (common chickweed, Stellaria media), galium (catchweed bedstraw, Galium aparine), bromegrass, downy (downy bromegrass, Bromus tectorum), field poppy (Papaver rhoeas), field violet (Viola arvensis), foxtail, green (green foxtail, Setaria viridis), deadnettle (henbit deadnettle, Lamium amplexicaule), ryegrass, Italian (Italian ryegrass, Lolium multiflorum), kochia (Kochia scoparia), lambsquarters (Chenopodium album), oilseed rape (Brassica napus), pigweed (Amaranthus retroflexus), chamomile (scentless chamomile, Matricaria inodora), Russian thistle (Salsola kali), speedwell (bird's-eye speedwell, Veronica persica), barley, spring (spring barley, Hordeum vulgare), wheat, spring (spring wheat, Triticum aestivum), buckwheat, wild (wild buckwheat, Polygonum convolvulus), mustard, wild (wild mustard, Sinapis arvensis), oat, wild (wild oat, Avena fatua), radish, wild (wild radish, Raphanus raphanistrum), […]), barley, winter (winter barley, Hordeum vulgare), and wheat, winter (winter wheat, Triticum aestivum) were planted into a silt loam soil and treated preemergence with test chemicals formulated in a non-phytotoxic solvent mixture which included a surfactant. At the same time, these species were planted in pots containing Redi-Earth® planting medium (Scotts Company, 14111 Scottslawn Road, Marysville, Ohio 43041) comprising spaghnum peat moss, vermiculite, wetting agent and starter nutrients and treated with postemergence applications of the test chemicals formulated in the same manner. Plants ranged in height from 2 to 18 cm (1- to 4-leaf stage). Treated plants and controls were maintained in a controlled growth environment for 7 to 21 days after which time all species were compared to controls and visually evaluated. Plant response ratings, summarized in Table D, are based on a scale of 0 to 100 where 0 is no effect and 100 is complete control. A dash (-) response means no test result.

bluegrass = format: in vivo, Poa annua; settings: for Plant response rating: Bluegrass, scale 0 to 100; for Plant response rating, Bluegrass: scale 0 to 100 (0 no effect, 100 complete control)
Source text: as §1

speedwell = format: in vivo, Veronica persica; settings: for Plant response rating: Postemergence, Speedwell, scale 0 to 100; for Plant response rating, Speedwell: Preemergence, scale 0 to 100 (0 no effect, 100 complete control)
Source text: as §1

blackgrass = format: in vivo, Alopecurus myosuroides; settings: for Plant response rating: Blackgrass, scale 0 to 100; for Plant response rating, Blackgrass: scale 0 to 100 (0 no effect, 100 complete control)
Source text: as §1

field poppy = format: in vivo, Papaver rhoeas; settings: for Plant response rating: Field Poppy, scale 0 to 100; for Plant response rating, Field Poppy: scale 0 to 100 (0 no effect, 100 complete control)
Source text: as §1

## O=C1NCC(c2ccc(C(F)(F)F)cc2)C1C(=O)Nc1cccc(F)c1F (stereo not drawn) [Compound 80, N-(2,3-difluorophenyl)-2-oxo-4-[4-(trifluoromethyl)phenyl]-3-pyrrolidinecarboxamide]
ryegrass, Italian; 31 g ai/ha
  Plant response rating: 0
  Plant response rating, Ryegrass, Italian: 0
ryegrass, Italian; 62 g ai/ha
  Plant response rating: 0
  Plant response rating, Ryegrass, Italian: 5
ryegrass, Italian; 125 g ai/ha
  Plant response rating: 0
  Plant response rating, Ryegrass, Italian: 5
ryegrass, Italian; 250 g ai/ha
  Plant response rating: 0
  Plant response rating, Ryegrass, Italian: 15
bluegrass; Postemergence, 31 g ai/ha
  Plant response rating: 5
bluegrass; Postemergence, 62 g ai/ha
  Plant response rating: 10
bluegrass; Postemergence, 125 g ai/ha
  Plant response rating: 15
bluegrass; Postemergence, 250 g ai/ha
  Plant response rating: 10
bluegrass; Preemergence, 62 g ai/ha
  Plant response rating, Bluegrass: 10
bluegrass; Preemergence, 31 g ai/ha
  Plant response rating, Bluegrass: 0
bluegrass; Preemergence, 125 g ai/ha
  Plant response rating: 20
bluegrass; Preemergence, 250 g ai/ha
  Plant response rating: 45
speedwell; 31 g ai/ha
  Plant response rating: 60
  Plant response rating, Speedwell: 10
speedwell; 62 g ai/ha
  Plant response rating: 70
  Plant response rating, Speedwell: 85
speedwell; 125 g ai/ha
  Plant response rating: 70
  Plant response rating, Speedwell: 85
speedwell; 250 g ai/ha
  Plant response rating: 65
  Plant response rating, Speedwell: 100
blackgrass; Postemergence, 31 g ai/ha
  Plant response rating: 5
blackgrass; Postemergence, 62 g ai/ha
  Plant response rating: 5
blackgrass; Postemergence, 125 g ai/ha
  Plant response rating: 5
blackgrass; Postemergence, 250 g ai/ha
  Plant response rating: 5
blackgrass; Preemergence, 62 g ai/ha
  Plant response rating, Blackgrass: 10
blackgrass; Preemergence, 31 g ai/ha
  Plant response rating, Blackgrass: 5
blackgrass; Preemergence, 125 g ai/ha
  Plant response rating: 20
blackgrass; Preemergence, 250 g ai/ha
  Plant response rating: 25
Field poppy; Postemergence, 31 g ai/ha
  Plant response rating: 25
Field poppy; Postemergence, 62 g ai/ha
  Plant response rating: 55
Field poppy; Postemergence, 125 g ai/ha
  Plant response rating: 20
Field poppy; Postemergence, 250 g ai/ha
  Plant response rating: 50
Field poppy; Preemergence, 62 g ai/ha
  Plant response rating, Field Poppy: 100
Field poppy; Preemergence, 31 g ai/ha
  Plant response rating, Field Poppy: 90
Field poppy; Preemergence, 125 g ai/ha
  Plant response rating: 100
Field poppy; Preemergence, 250 g ai/ha
  Plant response rating: 100

## O=C1NC[C@H](c2cccc(C(F)(F)F)c2)[C@H]1C(=O)Nc1ccccc1F [Compound 204, (3R,4S)—N-(2-fluorophenyl)-2-oxo-4-[3-(trifluoromethyl)phenyl]-3-pyrrolidinecarboxamide]
ryegrass, Italian; 62 g ai/ha
  Plant response rating, Ryegrass, Italian: 15
ryegrass, Italian; 125 g ai/ha
  Plant response rating, Ryegrass, Italian: 45
ryegrass, Italian; 31 g ai/ha
  Plant response rating, Ryegrass, Italian: 5
ryegrass, Italian; 250 g ai/ha
  Plant response rating, Ryegrass, Italian: 60
bluegrass; Preemergence, 62 g ai/ha
  Plant response rating, Bluegrass: 0
bluegrass; Preemergence, 125 g ai/ha
  Plant response rating, Bluegrass: 15
bluegrass; Preemergence, 31 g ai/ha
  Plant response rating, Bluegrass: 0
bluegrass; Preemergence, 250 g ai/ha
  Plant response rating: 35
speedwell; 62 g ai/ha
  Plant response rating, Speedwell: 10
speedwell; 125 g ai/ha
  Plant response rating, Speedwell: 10
speedwell; 31 g ai/ha
  Plant response rating, Speedwell: 0
speedwell; 250 g ai/ha
  Plant response rating, Speedwell: 70
blackgrass; Preemergence, 62 g ai/ha
  Plant response rating, Blackgrass: 10
blackgrass; Preemergence, 125 g ai/ha
  Plant response rating, Blackgrass: 40
blackgrass; Preemergence, 31 g ai/ha
  Plant response rating, Blackgrass: 5
blackgrass; Preemergence, 250 g ai/ha
  Plant response rating: 65
Field poppy; Preemergence, 62 g ai/ha
  Plant response rating, Field Poppy: 85
Field poppy; Preemergence, 125 g ai/ha
  Plant response rating, Field Poppy: 80
Field poppy; Preemergence, 31 g ai/ha
  Plant response rating, Field Poppy: 75
Field poppy; Preemergence, 250 g ai/ha
  Plant response rating: 95

## O=C1NC[C@H](c2cccc(C(F)(F)F)c2)[C@H]1C(=O)Nc1cccc(F)c1F [Compound 206]
ryegrass, Italian; 62 g ai/ha
  Plant response rating, Ryegrass, Italian: 30
ryegrass, Italian; 125 g ai/ha
  Plant response rating, Ryegrass, Italian: 55
ryegrass, Italian; 31 g ai/ha
  Plant response rating, Ryegrass, Italian: 35
ryegrass, Italian; 250 g ai/ha
  Plant response rating, Ryegrass, Italian: 75
bluegrass; Preemergence, 62 g ai/ha
  Plant response rating, Bluegrass: 30
bluegrass; Preemergence, 125 g ai/ha
  Plant response rating, Bluegrass: 35
bluegrass; Preemergence, 31 g ai/ha
  Plant response rating, Bluegrass: 0
bluegrass; Preemergence, 250 g ai/ha
  Plant response rating: 70
speedwell; 62 g ai/ha
  Plant response rating, Speedwell: 25
speedwell; 125 g ai/ha
  Plant response rating, Speedwell: 65
speedwell; 31 g ai/ha
  Plant response rating, Speedwell: 0
speedwell; 250 g ai/ha
  Plant response rating, Speedwell: 90
blackgrass; Preemergence, 62 g ai/ha
  Plant response rating, Blackgrass: 70
blackgrass; Preemergence, 125 g ai/ha
  Plant response rating, Blackgrass: 85
blackgrass; Preemergence, 31 g ai/ha
  Plant response rating, Blackgrass: 30
blackgrass; Preemergence, 250 g ai/ha
  Plant response rating: 90
Field poppy; Preemergence, 62 g ai/ha
  Plant response rating, Field Poppy: 90
Field poppy; Preemergence, 125 g ai/ha
  Plant response rating, Field Poppy: 90
Field poppy; Preemergence, 31 g ai/ha
  Plant response rating, Field Poppy: 80
Field poppy; Preemergence, 250 g ai/ha
  Plant response rating: 95

## O=C1NCC(c2ccc(C(F)(F)F)cc2)C1C(=O)Nc1ccccc1F (stereo not drawn) [Compound 231]
ryegrass, Italian; 31 g ai/ha
  Plant response rating: 0
  Plant response rating, Ryegrass, Italian: 0
ryegrass, Italian; 62 g ai/ha
  Plant response rating: 0
  Plant response rating, Ryegrass, Italian: 0
ryegrass, Italian; 125 g ai/ha
  Plant response rating: 0
  Plant response rating, Ryegrass, Italian: 0
ryegrass, Italian; 250 g ai/ha
  Plant response rating: 0
  Plant response rating, Ryegrass, Italian: 0
bluegrass; Postemergence, 31 g ai/ha
  Plant response rating: 5
bluegrass; Postemergence, 62 g ai/ha
  Plant response rating: 10
bluegrass; Postemergence, 125 g ai/ha
  Plant response rating: 10
bluegrass; Postemergence, 250 g ai/ha
  Plant response rating: 10
bluegrass; Preemergence, 62 g ai/ha
  Plant response rating, Bluegrass: 0
bluegrass; Preemergence, 125 g ai/ha
  Plant response rating, Bluegrass: 15
bluegrass; Preemergence, 31 g ai/ha
  Plant response rating, Bluegrass: 5
bluegrass; Preemergence, 250 g ai/ha
  Plant response rating: 25
speedwell; 31 g ai/ha
  Plant response rating: 60
  Plant response rating, Speedwell: 75
speedwell; 62 g ai/ha
  Plant response rating: 70
  Plant response rating, Speedwell: 80
speedwell; 125 g ai/ha
  Plant response rating: 75
  Plant response rating, Speedwell: 100
speedwell; 250 g ai/ha
  Plant response rating: 75
  Plant response rating, Speedwell: 100
blackgrass; Postemergence, 31 g ai/ha
  Plant response rating: 0
blackgrass; Postemergence, 62 g ai/ha
  Plant response rating: 10
blackgrass; Postemergence, 125 g ai/ha
  Plant response rating: 10
blackgrass; Postemergence, 250 g ai/ha
  Plant response rating: 20
blackgrass; Preemergence, 62 g ai/ha
  Plant response rating, Blackgrass: 0
blackgrass; Preemergence, 125 g ai/ha
  Plant response rating, Blackgrass: 15
blackgrass; Preemergence, 31 g ai/ha
  Plant response rating, Blackgrass: 0
blackgrass; Preemergence, 250 g ai/ha
  Plant response rating: 55
Field poppy; Postemergence, 31 g ai/ha
  Plant response rating: 0
Field poppy; Postemergence, 62 g ai/ha
  Plant response rating: 20
Field poppy; Postemergence, 125 g ai/ha
  Plant response rating: 0
Field poppy; Postemergence, 250 g ai/ha
  Plant response rating: 50
Field poppy; Preemergence, 62 g ai/ha
  Plant response rating, Field Poppy: 80
Field poppy; Preemergence, 125 g ai/ha
  Plant response rating, Field Poppy: 100
Field poppy; Preemergence, 31 g ai/ha
  Plant response rating, Field Poppy: 80
Field poppy; Preemergence, 250 g ai/ha
  Plant response rating: 95
